# Species: Mus musculus
# Test: Antimalarial activity was evaluated against Plasmodium berghei in female CD1 mice (Mus musculus) (20-25g)
# Assay type: functional
row,Compound,ED50
1,COc1cc(NC(C)CCCN)c2ncccc2c1F (configuration not stated),7.78 µmol/kg
2,COc1cc(NC(C)CCCN)c2ncccc2c1 (configuration not stated) [PRIMAQUINE],2.2 µmol/kg
